US20090324754A1, “EUCALYPTUS EXTRACT, METHOD OF PREPARATION AND THERAPEUTIC USES THEREOF” (Pierre Fabre Medicament, priority 2006, published 2009)

Molecular target: T1, serotonin reuptake (Rattus norvegicus, UniProt P31652)
T1 construct: Synapses obtained from rat brains; from tissue; host or cells: rat brain synapses (synaptosomes)
Assay: Serotonin (5-HT) reuptake, [3H]-serotonin uptake in rat brain synapses
Assay type: biochemical
Conditions: 0.3 μg of extract/ml of solution
Description: The uptake tests were carried out in vitro on synapses of rats.
The baseline activity is determined by incubating the same mixture for 15 minutes at 37° C. in the presence of 10 μM imipramine in order to block the reuptake.
Following the incubation, the samples are filtered rapidly in vacuo through glass-fibre filters (GB/B, Packard) and rinsed twice with ice-cold incubation buffer in order to eliminate free [^3H]-serotonin. The filters are dried and the retained radioactivity is measured by means of a scintillation counter (Topcount, Packard) using a scintillation cocktail (Microscint O, Packard).
The results are expressed as a percent inhibition of the control uptake of [^3H]-serotonin (see Table 1)

T1 sequence (P31652 whole entry): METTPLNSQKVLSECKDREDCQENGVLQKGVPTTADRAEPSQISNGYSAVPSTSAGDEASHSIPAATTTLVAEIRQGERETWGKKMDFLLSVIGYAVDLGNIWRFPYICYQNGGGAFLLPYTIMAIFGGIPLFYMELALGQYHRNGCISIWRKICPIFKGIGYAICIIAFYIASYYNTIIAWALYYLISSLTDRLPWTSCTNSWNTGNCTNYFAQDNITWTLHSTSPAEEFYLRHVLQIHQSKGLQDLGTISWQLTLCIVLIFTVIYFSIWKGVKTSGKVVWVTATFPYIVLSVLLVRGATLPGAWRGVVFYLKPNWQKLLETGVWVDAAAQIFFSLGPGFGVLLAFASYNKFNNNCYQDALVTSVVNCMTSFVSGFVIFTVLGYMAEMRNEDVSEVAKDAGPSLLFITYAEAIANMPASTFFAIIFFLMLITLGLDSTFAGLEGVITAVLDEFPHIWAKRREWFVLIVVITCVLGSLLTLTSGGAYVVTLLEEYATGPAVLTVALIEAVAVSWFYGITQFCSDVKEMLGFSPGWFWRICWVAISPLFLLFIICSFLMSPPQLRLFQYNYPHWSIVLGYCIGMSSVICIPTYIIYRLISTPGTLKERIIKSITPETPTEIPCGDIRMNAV

## C=C1CCC2C(C3C1CCC3(C)C(CC(C)C)c1c(O)c(C=O)c(O)c(C=O)c1O)C2(C)C (stereo not shown) [Macrocarpal G, 5-(1-(3,3,11-trimethyl-7-methylene-tricyclo(6.3.0.0(2,4))undec-11-yl)-3-methylbutyl)-2,4,6-trihydroxybenzene-1,3-dicarbaldehyde]
  % inhibition of serotonin reuptake: 103.8%
